Measurements published in patent publication US12643867B2, “Compositions and uses thereof” (University of Virginia Patent Foundation, priority 2017, dated 2026).

How the values were obtained:
Experiment in all cases: SILAC LC-MS ATP acyl phosphate probe competition, native kinases in HEK293T
Format in all cases: binding
Conditions in all cases: site Lys2; ATP 1 mM; Ketanserin, Ritanserin 100 μM; RF001 1 mM
[1] = target: T1, KS6B1 (Ribosomal protein S6 kinase 1, p70 S6 kinase alpha) (Homo sapiens, UniProt P23443)
T1 construct: measured against >50 native kinases quantified in HEK293T soluble proteomes; endogenous in cells; host or cells: HEK293T soluble proteome
Summary of the method: (§1)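 Light and heavy SILAC HEK293T proteomes (2 mg/ml in kinase buffer) were pre-treated with DMSO or compound (50× stock in DMSO) for 30 min at 25° C, then mixed 1:1, reduced, alkylated and digested with trypsin/Lys-C. Desthiobiotin-labelled peptides were avidin-enriched and analysed by LC-MS/MS on an Orbitrap, top-10 data-dependent acquisition.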

[2] = target: T2, CDK2 (Cell division protein kinase 2) (Homo sapiens, UniProt P24941)
T2 construct: measured against >50 native kinases quantified in HEK293T soluble proteomes; endogenous in cells; host or cells: HEK293T soluble proteome
Summary of the method: as §1

[3] = target: T3, M4K3 (Mitogen-activated protein kinase kinase kinase kinase 3) (Homo sapiens, UniProt Q8IVH8)
T3 construct: Native kinases; endogenous in cells; host or cells: HEK293T soluble proteome
T3 sequence (Q8IVH8 1-894): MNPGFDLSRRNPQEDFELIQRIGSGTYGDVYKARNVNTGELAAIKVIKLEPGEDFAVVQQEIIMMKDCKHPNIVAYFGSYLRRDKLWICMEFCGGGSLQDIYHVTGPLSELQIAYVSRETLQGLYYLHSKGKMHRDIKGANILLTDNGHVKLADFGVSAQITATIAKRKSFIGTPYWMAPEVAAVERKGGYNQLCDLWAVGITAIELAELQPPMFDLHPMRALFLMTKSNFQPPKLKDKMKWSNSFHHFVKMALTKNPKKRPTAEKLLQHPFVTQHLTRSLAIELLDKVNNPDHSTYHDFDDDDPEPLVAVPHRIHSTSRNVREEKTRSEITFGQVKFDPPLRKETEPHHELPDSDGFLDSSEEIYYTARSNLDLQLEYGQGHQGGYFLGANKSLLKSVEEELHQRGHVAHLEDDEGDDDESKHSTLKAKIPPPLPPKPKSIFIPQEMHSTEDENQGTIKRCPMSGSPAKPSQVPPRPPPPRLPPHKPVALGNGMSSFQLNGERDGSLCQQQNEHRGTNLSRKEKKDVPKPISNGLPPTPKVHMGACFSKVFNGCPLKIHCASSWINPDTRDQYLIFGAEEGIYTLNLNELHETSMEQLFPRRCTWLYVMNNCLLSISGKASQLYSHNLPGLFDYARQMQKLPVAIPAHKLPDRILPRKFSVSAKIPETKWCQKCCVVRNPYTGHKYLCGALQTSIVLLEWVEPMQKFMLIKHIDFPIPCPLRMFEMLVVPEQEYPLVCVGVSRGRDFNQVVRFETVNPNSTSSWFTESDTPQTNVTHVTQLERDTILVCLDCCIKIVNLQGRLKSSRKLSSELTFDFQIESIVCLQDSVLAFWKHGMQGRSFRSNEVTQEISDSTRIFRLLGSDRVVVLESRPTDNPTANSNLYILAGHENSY
Summary of the method: as §1

[4] = target: T4, E2AK2 (Interferon-induced, double-stranded RNA-activated protein kinase) (Homo sapiens, UniProt P19525)
T4 construct: measured against >50 native kinases quantified in HEK293T soluble proteomes; endogenous in cells; host or cells: HEK293T soluble proteome
Summary of the method: as §1

T4 sequence (P19525 whole entry): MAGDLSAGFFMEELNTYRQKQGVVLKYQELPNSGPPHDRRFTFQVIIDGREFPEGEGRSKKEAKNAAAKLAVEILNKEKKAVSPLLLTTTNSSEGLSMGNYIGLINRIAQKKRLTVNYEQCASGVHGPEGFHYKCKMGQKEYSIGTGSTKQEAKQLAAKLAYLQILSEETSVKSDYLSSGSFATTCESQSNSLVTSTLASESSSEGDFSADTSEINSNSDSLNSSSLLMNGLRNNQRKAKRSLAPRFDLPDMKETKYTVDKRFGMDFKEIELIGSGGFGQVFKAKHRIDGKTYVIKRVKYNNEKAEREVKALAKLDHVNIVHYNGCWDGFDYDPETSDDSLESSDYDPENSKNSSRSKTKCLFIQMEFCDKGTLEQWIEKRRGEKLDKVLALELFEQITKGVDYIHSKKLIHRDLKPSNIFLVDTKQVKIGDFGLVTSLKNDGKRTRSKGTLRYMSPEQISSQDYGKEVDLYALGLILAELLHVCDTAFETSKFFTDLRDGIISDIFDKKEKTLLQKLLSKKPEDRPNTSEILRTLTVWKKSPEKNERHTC
T1 sequence (P23443 whole entry): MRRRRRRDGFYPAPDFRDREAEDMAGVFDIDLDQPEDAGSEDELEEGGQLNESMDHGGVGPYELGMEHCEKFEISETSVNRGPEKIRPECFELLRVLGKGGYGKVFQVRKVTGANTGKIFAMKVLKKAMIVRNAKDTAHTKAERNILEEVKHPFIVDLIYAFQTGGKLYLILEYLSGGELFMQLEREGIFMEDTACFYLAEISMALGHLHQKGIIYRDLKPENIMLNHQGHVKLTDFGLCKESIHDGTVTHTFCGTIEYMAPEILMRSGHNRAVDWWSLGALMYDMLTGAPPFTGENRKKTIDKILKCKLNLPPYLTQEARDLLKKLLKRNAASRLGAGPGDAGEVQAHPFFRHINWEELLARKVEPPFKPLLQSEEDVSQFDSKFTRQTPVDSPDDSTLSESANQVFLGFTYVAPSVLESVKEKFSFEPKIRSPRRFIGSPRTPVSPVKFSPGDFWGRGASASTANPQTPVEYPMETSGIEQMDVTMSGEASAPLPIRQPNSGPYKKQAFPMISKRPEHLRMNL

| SILAC ratio, KS6B1 probe-modified peptide [1] | SILAC ratio, CDK2 probe-modified peptide [2] | SILAC ratio, M4K3 probe-modified peptide [3] | SILAC ratio, E2AK2 probe-modified peptide [4] | SMILES |
| --- | --- | --- | --- | --- |
| 1.2 | 1.6 | 1.4 | 1.3 | O=C(c1ccc(F)cc1)C1CCN(CCn2c(=O)[nH]c3ccccc3c2=O)CC1 [Ketanserin] |
| 1.0 | 0.7 | 1.1 | 1.2 | Fc1ccc(C(=C2CCNCC2)c2ccc(F)cc2)cc1 [RF001, 4-(Bis(4-fluorophenyl)methylene) piperidine] |

| SMILES | SILAC ratio, KS6B1 probe-modified peptide [1] | SILAC ratio, CDK2 probe-modified peptide [2] | SILAC ratio, M4K3 probe-modified peptide [3] | SILAC ratio, E2AK2 probe-modified peptide [4] |
| --- | --- | --- | --- | --- |
| Cc1nc2sccn2c(=O)c1CCN1CCC(=C(c2ccc(F)cc2)c2ccc(F)cc2)CC1 [Ritanserin] | 1.3 | 2.9 | 1.8 | 2.8 |
